Results reported in PubChem BioAssay AID504322 (Emory University Molecular Libraries Screening Center, 2011).
The source made the active and inactive calls. The rule behind the calls is not given here.

What follows are compounds tested on CHOP reporter cell assay, percent of control (assay: CHOP reporter inhibitor potency, dose response, cell-based (AID 504322);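 note: CHO cells carrying a CHOP reporter stimulated with tunicamycin to induce ER stress; potency is for inhibition of the stress-induced reporter signal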).

Compound	IC50
C[C@H](NC(=O)c1[nH]cnc1C(=O)Nc1ccc(Cl)cc1)C(=O)OC(C)(C)C	5.47 µM (inactive)
Cn1c(=O)[nH]c(=O)c2c1nc([N+](=O)[O-])n2Cc1ccccc1	4.64 µM
O=C(NCc1ccccc1)c1cc(-c2ccncc2)nc2ccc(S(=O)(=O)N3CCOCC3)cc12	9.8 µM (inactive)
O=[N+]([O-])c1ccc(-c2nc(C(Cl)Cl)c3ccccc3n2)cc1	0.19 µM
Oc1ccc(Br)cc1-c1cc(-c2ccccc2F)[nH]n1	> 10 µM (inactive)
Cc1ccc(CNCc2cc3c(C(C)(C)C)nn(-c4ccccc4)c3[nH]c2=O)cc1	7.24 µM (inactive)
Cc1ccc(OCC(=O)N2CCN(c3nnc(-c4ccc(C)cc4)c4ccccc34)CC2)cc1	8.38 µM (inactive)
N#CC(C#N)=C1C=CC=CN1/C(=C\c1ccccc1Cl)C(=O)c1ccccc1	> 10 µM (inactive)
COC(=O)C(Nc1ccccc1Cl)(c1cc(C)c(O)c(C)c1)C(F)(F)F (stereo not drawn)	9.66 µM (inactive)
O=C(CSc1ncnc2[nH]ncc12)Nc1nc(-c2ccc(F)c(F)c2)cs1	6.98 µM (inactive)
CCC1CCc2c(sc(NC(=O)c3ccoc3C)c2C(N)=O)C1 (stereo not drawn)	> 10 µM (inactive)
CCCCc1c(C)nn(-c2nnc3c4ccccc4n(CC)c3n2)c1C	9.73 µM (inactive)
Cc1csc(NC(=O)CSc2nnc3c4ccccc4nc(C(C)(C)C)n23)n1	9.55 µM (inactive)
O=C(On1c(-c2ccccc2)nc2ccccc2c1=O)c1ccco1	> 10 µM (inactive)
O=S(=O)(/C(=C/c1ccc(C(F)(F)F)cc1)c1nc2ccccc2[nH]1)c1ccccc1	5.46 µM (inactive)
Cc1ccccc1Oc1cc(-n2ncc(Cl)c(Cl)c2=O)ncn1	2.08 µM
CCOc1ccc(C2=C/C(=C/c3cccnc3)C(=O)O2)cc1	9.39 µM (inactive)
CCCCCc1ccc(OCCOCCn2c[n+](C)c3ccccc32)c(CCCCC)c1	3.52 µM
CCCN1C=CC(=C2C(=O)c3ccccc3C2=O)C=C1	1.78 µM (inactive)
CCOC(=O)c1c(-n2c(C)cc(C=C3C(=O)NC(=S)NC3=O)c2C)sc2c1CCCC2	5.85 µM (inactive)
Cc1ccc(/C=N/NC(=O)CSCc2ccc(Cl)cc2)cc1	9.83 µM (inactive)
OCCCNc1cc(-c2ccnc(Nc3cccc(Cl)c3)n2)ccn1	< 0.16 µM
CCN1C=CC(=C2C(=O)c3ccccc3C2=O)C=C1	1.11 µM (inactive)
CCOC(=O)c1c(/N=C/c2c(O)n(-c3cccc(C)c3)c(=O)[nH]c2=O)sc2c1CCCC2	2.39 µM
CCOc1ccc(N=Cc2c(O)n(C(C)(C)C)c(=O)[nH]c2=O)cc1	9.2 µM (inactive)

Compound	IC50
CCN(CC)CCn1c(SCC(=O)Nc2ccc(F)cc2)nc2c(sc3ccccc32)c1=O	> 10 µM (inactive)
O=C(c1ccco1)N1CCN(c2c(-c3ccccc3)c3cc(Cl)ccc3[nH]c2=O)CC1	5.65 µM (inactive)
CC(C)=CCc1c(O)cc2oc3c(CC=C(C)C)c(O)c(O)c(CC=C(C)C)c3c(=O)c2c1O	9.67 µM (inactive)
C=CCn1c(C)cc(C2=NNC(=NCC)SC2)c1C	< 0.16 µM
C=C(C)C(=O)OC1(C(F)(F)F)Oc2cc(C)ccc2NC1=O (stereo not drawn)	5.82 µM (inactive)
CCC(C)Sc1nc2c(c(=O)[nH]c(=O)n2C)n1Cc1ccc(Cl)cc1 (stereo not drawn)	> 10 µM (inactive)
COc1cc(-c2nc3c(c(C)nn3-c3ccccc3)c3cc(OC)c(OC)cc23)ccc1O	9.85 µM (inactive)
CCOc1cc(S(=O)(=O)Nc2ccc(CC)cc2)ccc1Cl	4.48 µM (inactive)
CCc1ccc(OCc2n[nH]c(=S)n2C(C)CCCC(C)C)cc1 (stereo not drawn)	2.44 µM
Cc1c(CN2CCC(CO)(CCOc3ccccc3)CC2)[nH]c2c(Cl)cccc12	9.13 µM (inactive)
Cc1ccc(S(=O)(=O)CC#CCOC(=O)c2ccc([N+](=O)[O-])cc2)cc1	> 10 µM (inactive)
CC(C)C[C@H](NC(=O)c1[nH]cnc1C(=O)N[C@@H](C)C(=O)OC(C)(C)C)C(=O)OC(C)(C)C	3.69 µM (inactive)
O=C(COc1ccc(Cl)cc1Cl)Nc1ccccn1	2.43 µM
CCOc1ccc(C2C=C(c3ccc(C)cc3)Nc3nnnn32)cc1 (stereo not drawn)	9.86 µM (inactive)
CS(=O)(=O)c1ncc(Cl)c(C(=O)Nc2ccc(N3CCOCC3)cc2)n1	> 10 µM (inactive)
O=C1C(Nc2ccccc2)=C/C(=N/S(=O)(=O)c2cccs2)c2ccccc21	2.6 µM
CC(C)Cc1ccc(C(C)C(=O)Nc2nccs2)cc1 (stereo not drawn)	> 10 µM (inactive)
CCOc1cc(C(=O)CSc2nnc(CNc3ccc(Cl)cc3)o2)ccc1NC(=O)CC	9.47 µM (inactive)
O=C(OCn1ncc(Br)c(Br)c1=O)c1c(F)cccc1F	0.76 µM
Nc1ccc(N2CCCCCC2)cc1	> 10 µM (inactive)
CC1CCC(n2c(=S)[nH]c3ccccc3c2=O)CC1 (stereo not drawn)	> 10 µM (inactive)
Cc1cc(/C=c2/sc3nc4ccccc4n3c2=O)c(C)n1-c1ccccn1	< 0.16 µM
OC(c1cccc(OCc2ccccc2)c1)c1nnc(-c2ccccc2)o1 (stereo not drawn)	> 10 µM (inactive)
Nc1c(S(=O)(=O)c2cccc(Cl)c2)c2nc3ccccc3nc2n1/N=C/c1ccc(O)c(O)c1	4.97 µM (inactive)
O=C(NCCNC(=O)c1cc(OCC(F)(F)F)ccc1OCC(F)(F)F)Nc1cccc(C(F)(F)F)c1	2.57 µM

Compound	IC50
CCCCCCSc1nsc(NC(=O)CCC)n1	9.9 µM (inactive)
Cc1nc(SCC(=O)Nc2cc(C)on2)c2c3c(sc2n1)CCCC3	> 10 µM (inactive)
O=C(O)c1cccc(COc2ccccc2Cl)c1	6.05 µM (inactive)
O=C(CSC1c2ccccc2-c2ccccc21)N/N=C/c1ccccc1O	> 10 µM (inactive)
CCOC(=O)c1c(C)[nH]c2c1-c1ccccc1C(=O)C2=O	2.38 µM
FC(F)(F)c1cccc(NC(=S)N2CCN(c3cccc(C(F)(F)F)c3)CC2)c1	9.67 µM (inactive)
CCOc1ccc(/C=N/NC(=O)c2cc(-c3ccco3)nc3ccccc23)cc1	5.15 µM (inactive)
CC1=CC2/C=C(\C)CCC(O)C(O)/C=C/C(=O)C23C(=O)NC(CC(C)C)C3C1C (stereo not drawn)	9.69 µM (inactive)
CCCCCCCCCCCCCCCC[n+]1ccc(/C=N/O)cc1	3.1 µM
CCc1ccc2c(c1)C(c1ccc([N+](=O)[O-])cc1)=NNC(c1ccc(C)cc1)=N2	> 10 µM (inactive)
Cc1ccc(NC(=O)C(=O)NCC2OCCc3ccccc32)cc1 (stereo not drawn)	8.99 µM (inactive)
CCOC(=O)c1ccc(NC(=O)c2nc[nH]c2C(=O)N[C@@H](C)C(=O)OC(C)(C)C)cc1	5.92 µM (inactive)
Cc1ccc(-c2[nH]ncc2/C=N/n2c(COc3ccccc3)nc3ccccc3c2=O)cc1	3.18 µM (inactive)
COC(=O)c1ccc2c(c1)C(C)(C)C(/C=C/c1ccccc1O)=[N+]2C	> 10 µM (inactive)
OC1(c2cccc(C(F)(F)F)c2)CCN(c2ncnc3c2[nH]c2ccc(F)cc23)CC1	4.54 µM (inactive)
C=CCSc1n[nH]c(-c2ccc(OCCCC)cc2)n1	> 10 µM (inactive)
Cc1cccc(NC(=O)CSc2nc(C)c(CC(=O)c3ccc(Br)cc3)c(C)c2C#N)c1C	5.95 µM (inactive)
COc1cc(/C=C2\CC/C(=C\c3cc(OC)c(O)c(OC)c3)C2=O)cc(OC)c1O	1.84 µM (inactive)
Cc1nnc(NC(=O)c2sc3nc(-c4cccs4)cc(C(F)(F)F)c3c2N)s1	5.97 µM (inactive)
C=C1C(=O)O[C@@H]2C[C@@H](C)[C@@H]3C=CC(=O)[C@@]3(C)[C@@H](OC(C)=O)[C@H]12	2.48 µM
O=c1cc(-c2c(F)c(F)c(F)c(F)c2F)oc2c(F)c(F)c(F)c(F)c12	3.98 µM
CCN1C/C(=C/c2ccc(OC)c(O)c2)C(=O)/C(=C/c2ccc(OC)c(O)c2)C1	5.33 µM (inactive)
COc1ccc(NC(=O)/C(Cl)=C(/Cl)S(=O)Cc2ccccc2Cl)cn1 (stereo not drawn)	0.3 µM
Nc1ccc(SC(F)(F)F)cc1C(=O)c1ccccc1	4.97 µM
CCc1ccc(-c2cc(C(=O)N3N=C(C(F)F)CC3(O)C(F)F)c3ccccc3n2)cc1 (stereo not drawn)	5.26 µM (inactive)

Compound	IC50
CC(C)(C)c1ccc(CN2N=Nc3ccccc3S2(=O)=O)cc1	9.3 µM (inactive)
CC(C)(C)c1ccc(Oc2ccc(N)cc2)cc1	< 0.16 µM (inactive)
CCCCC(CC)Cn1c(N)c(C#N)c2nc3ccccc3nc21 (stereo not drawn)	3.98 µM
COc1cc2c(cc1OC)C(c1ccccc1)N(C(=O)CCl)CC2 (stereo not drawn)	9.53 µM (inactive)
O=c1c(Cl)c(Cl)cnn1-c1ccccc1	9.45 µM (inactive)
C=CCn1c(CCc2cc(C(C)(C)C)c(O)c(C(C)(C)C)c2)n[nH]c1=S	7 µM (inactive)
O=C(Nc1ccc(F)cc1)Nc1ccc(N2CCCC2)c(S(=O)(=O)Nc2ccccc2Cl)c1	8.31 µM (inactive)
CCOC(=O)C1=C(c2ccccc2)O/C(=C(/C#N)C(F)(F)F)S1	6.28 µM (inactive)
Cc1cc(Cl)ccc1OCC(=O)N[C@@H](Cc1ccccc1)c1nc2ccccc2[nH]1	9.23 µM (inactive)
O=C(COc1ccc(Cl)cc1Cl)NCCC1=CCCCC1	7.77 µM (inactive)
Cc1cc(/C=N/Nc2nc(N)ncc2[N+](=O)[O-])c(C)n1-c1cccc(C(F)(F)F)c1	9.14 µM (inactive)
COc1ccc(-c2nc(NC(=O)Cn3ccc(C(F)(F)F)n3)sc2C)cc1	> 10 µM (inactive)
CCCCCCn1c(CN2CCCC(C)C2)nc2c1c(=O)n(C)c(=O)n2C (stereo not drawn)	> 10 µM (inactive)
CCCCn1c(N2CCC(Cc3ccccc3)CC2)nc2c1c(=O)[nH]c(=O)n2C	6.06 µM (inactive)
O=C1C=CC(O)(c2cc(=O)c3c(O)cc(O)cc3o2)C=C1	2.58 µM
CC(C)(C)C1CCC(C(=O)OCC(=O)c2ccc[nH]2)CC1 (stereo not drawn)	6.04 µM (inactive)
Cc1ccc(NC(=O)c2cc3ccccc3oc2=O)cc1S(=O)(=O)N(C)C	< 0.16 µM
CCCCS(=O)(=O)/C=C\C=C/S(=O)(=O)CCCC	2.12 µM
O=C1CC(Sc2nnnn2-c2ccccc2)C(=O)N1c1cccc(Cl)c1 (stereo not drawn)	> 10 µM (inactive)
Cc1cc(C)cc(NC(=O)/C(C#N)=C/c2cn(CC(=O)NCc3ccco3)c3ccccc23)c1	1.17 µM
CC1(c2ccccc2)CC(C)(C)n2c(O)c(C3=NC(=S)NC3=O)c3cccc1c32 (stereo not drawn)	9.76 µM (inactive)
CCCCCCn1c(=O)c(C(=O)Nc2cnccn2)c(O)c2ccccc21	2.64 µM
CC(=O)Nc1ccc(NC2=Nc3ccccc3N3C2=Nc2c(c(C)nn2-c2ccccc2)C3c2ccccc2)cc1 (stereo not drawn)	4.24 µM
